Experimental data reported in patent US4868321A, “Isothiocyanate intermediates” (FMC Corporation, priority 1988, dated 1989).

Assays:
Format in all cases: in vivo
Velvetleaf [1] = assay: Postemergence Herbicidal Activity, Velvetleaf; details: Abutilon theophrasti, post-emergence; for pest or weed control at 2000 g/ha: 2.0 kg/ha
Outline: (§1)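 Read-out is percent control (% C) at application rates expressed in kilograms per hectare. Compounds were generally delivered in a 50/50 acetone/water solution, either before emergence or onto emerged plants.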

Barnyardgrass [2] = assay: Preemergence Herbicidal Activity, Barnyardgrass; details: Echinochloa crus-galli, pre-emergence; for pest or weed control at 2000 g/ha: 2.0 kg/ha
Outline: (§2)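 Test compounds are dosed on a per-area basis (kg/ha); plant response is reported as % C.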

Rice [3] = assay: Postemergence Herbicidal Activity, Rice; details: Oryza sativa, post-emergence; for plant injury at 2000 g/ha: 2.0 kg/ha
Outline: (§3)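 Application rate is expressed per hectare in kilograms. Values are percent control.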

Rice [4] = assay: Preemergence Herbicidal Activity, Rice; details: Oryza sativa, pre-emergence; for plant injury at 2000 g/ha: 2.0 kg/ha
Outline: as §3

Velvetleaf [5] = assay: Preemergence Herbicidal Activity, Velvetleaf; details: Abutilon theophrasti, pre-emergence; for pest or weed control at 2000 g/ha: 2.0 kg/ha
Outline: as §1

Field Bindweed [6] = assay: Postemergence Herbicidal Activity, Field Bindweed; details: post-emergence; for pest or weed control at 2000 g/ha: 2.0 kg/ha
Outline: as §1

Field Bindweed [7] = assay: Preemergence Herbicidal Activity, Field Bindweed; details: pre-emergence; for pest or weed control at 2000 g/ha: 2.0 kg/ha
Outline: as §1

Soybean [8] = assay: Preemergence Herbicidal Activity, Soybean; details: Glycine max, pre-emergence; for plant injury at 2000 g/ha: 2.0 kg/ha
Outline: as §3

Green Foxtail [9] = assay: Preemergence Herbicidal Activity, Green Foxtail; details: Setaria viridis, pre-emergence; for pest or weed control at 2000 g/ha: 2.0 kg/ha
Outline: as §2

Wheat [10] = assay: Postemergence Herbicidal Activity, Wheat; details: Triticum aestivum, post-emergence; for plant injury at 2000 g/ha: 2.0 kg/ha
Outline: as §3

Morningglory [11] = assay: Postemergence Herbicidal Activity, Morningglory; details: Ipomoea, post-emergence; for pest or weed control at 2000 g/ha: 2.0 kg/ha
Outline: as §1

Soybean [12] = assay: Postemergence Herbicidal Activity, Soybean; details: Glycine max, post-emergence; for plant injury at 2000 g/ha: 2.0 kg/ha
Outline: as §3

Green Foxtail [13] = assay: Postemergence Herbicidal Activity, Green Foxtail; details: Setaria viridis, post-emergence; for pest or weed control at 2000 g/ha: 2.0 kg/ha
Outline: as §2

Wheat [14] = assay: Preemergence Herbicidal Activity, Wheat; details: Triticum aestivum, pre-emergence; for plant injury at 2000 g/ha: 2.0 kg/ha
Outline: as §3

Morningglory [15] = assay: Preemergence Herbicidal Activity, Morningglory; details: Ipomoea, pre-emergence; for pest or weed control at 2000 g/ha: 2.0 kg/ha
Outline: as §1

Johnsongrass [16] = assay: Preemergence Herbicidal Activity, Johnsongrass; details: Sorghum halepense, pre-emergence; for pest or weed control at 2000 g/ha: 2.0 kg/ha
Outline: as §2

Field Corn [17] = assay: Preemergence Herbicidal Activity, Field Corn; details: Zea mays, pre-emergence; for plant injury at 2000 g/ha: 2.0 kg/ha
Outline: as §3

Field Corn [18] = assay: Postemergence Herbicidal Activity, Field Corn; details: Zea mays, post-emergence; for plant injury at 2000 g/ha: 2.0 kg/ha
Outline: as §3

Johnsongrass [19] = assay: Postemergence Herbicidal Activity, Johnsongrass; details: Sorghum halepense, post-emergence; for pest or weed control at 2000 g/ha: 2.0 kg/ha
Outline: as §2

Cotton [20] = assay: Postemergence Herbicidal Activity, Cotton; details: Gossypium hirsutum, post-emergence; for plant injury at 2000 g/ha: 2.0 kg/ha
Outline: as §1

Cotton [21] = assay: Preemergence Herbicidal Activity, Cotton; details: Gossypium hirsutum, pre-emergence; for plant injury at 2000 g/ha: 2.0 kg/ha
Outline: as §1

Barnyardgrass [22] = assay: Postemergence Herbicidal Activity, Barnyardgrass; details: Echinochloa crus-galli, post-emergence; for pest or weed control at 2000 g/ha: 2.0 kg/ha
Outline: as §2

Compound: Cn1nnn(-c2cc(N(S(C)(=O)=O)S(C)(=O)=O)c(Cl)cc2F)c1=O [Compound 40]
- pest or weed control at 4000 g/ha (Velvetleaf [1]; 4.0 kg/ha): 70%
- pest or weed control at 4000 g/ha (Barnyardgrass [2]; 4.0 kg/ha): 70%
- plant injury at 4000 g/ha (Rice [3]; 4.0 kg/ha): 10%
- plant injury at 4000 g/ha (Rice [4]; 4.0 kg/ha): 20%
- pest or weed control at 4000 g/ha (Velvetleaf [5]; 4.0 kg/ha): 100%
- pest or weed control at 4000 g/ha (Field Bindweed [6]; 4.0 kg/ha): 40%
- pest or weed control at 4000 g/ha (Field Bindweed [7]; 4.0 kg/ha): 40%
- plant injury at 4000 g/ha (Soybean [8]; 4.0 kg/ha): 20%
- pest or weed control at 4000 g/ha (Green Foxtail [9]; 4.0 kg/ha): 40%
- plant injury at 4000 g/ha (Wheat [10]; 4.0 kg/ha): 20%
- pest or weed control at 4000 g/ha (Morningglory [11]; 4.0 kg/ha): 60%
- plant injury at 4000 g/ha (Soybean [12]; 4.0 kg/ha): 20%
- pest or weed control at 4000 g/ha (Green Foxtail [13]; 4.0 kg/ha): 30%
- plant injury at 4000 g/ha (Wheat [14]; 4.0 kg/ha): 30%
- pest or weed control at 4000 g/ha (Morningglory [15]; 4.0 kg/ha): 70%
- pest or weed control at 4000 g/ha (Johnsongrass [16]; 4.0 kg/ha): 40%
- plant injury at 4000 g/ha (Field Corn [17]; 4.0 kg/ha): 30%
- plant injury at 4000 g/ha (Field Corn [18]; 4.0 kg/ha): 20%
- pest or weed control at 4000 g/ha (Johnsongrass [19]; 4.0 kg/ha): 30%
- plant injury at 4000 g/ha (Cotton [20]; 4.0 kg/ha): 40%
- plant injury at 4000 g/ha (Cotton [21]; 4.0 kg/ha): 50%
- pest or weed control at 4000 g/ha (Barnyardgrass [22]; 4.0 kg/ha): 60%

Compound: CCCn1nnn(-c2cc(N(S(=O)(=O)CC)S(=O)(=O)CC)c(Cl)cc2F)c1=O [Compound 49, 1-[4-Chloro-2-fluoro-5-[bis-(N--ethylsulfonyl)amino]phenyl]-4,5-dihydro-4-propyl-5H--tetrazol-5-one]
- pest or weed control at 2000 g/ha (Velvetleaf [1]): 100%
- pest or weed control at 2000 g/ha (Barnyardgrass [2]): 100%
- plant injury at 2000 g/ha (Rice [3]): 50%
- plant injury at 2000 g/ha (Rice [4]): 70%
- pest or weed control at 2000 g/ha (Velvetleaf [5]): 100%
- pest or weed control at 2000 g/ha (Field Bindweed [6]): 80%
- pest or weed control at 2000 g/ha (Field Bindweed [7]): 80%
- plant injury at 2000 g/ha (Soybean [8]): 20%
- pest or weed control at 2000 g/ha (Green Foxtail [9]): 100%
- plant injury at 2000 g/ha (Wheat [10]): 80%
- pest or weed control at 2000 g/ha (Morningglory [11]): 90%
- plant injury at 2000 g/ha (Soybean [12]): 50%
- pest or weed control at 2000 g/ha (Green Foxtail [13]): 95%
- plant injury at 2000 g/ha (Wheat [14]): 95%
- pest or weed control at 2000 g/ha (Morningglory [15]): 70%
- pest or weed control at 2000 g/ha (Johnsongrass [16]): 80%
- plant injury at 2000 g/ha (Field Corn [17]): 90%
- plant injury at 2000 g/ha (Field Corn [18]): 80%
- pest or weed control at 2000 g/ha (Johnsongrass [19]): 90%
- plant injury at 2000 g/ha (Cotton [20]): 100%
- plant injury at 2000 g/ha (Cotton [21]): 90%
- pest or weed control at 2000 g/ha (Barnyardgrass [22]): 95%

Compound: CCCn1nnn(-c2cc(NS(=O)(=O)CC)c(Cl)cc2F)c1=O [Compound 51, 1-[4-Chloro-2-fluoro-5-(N--ethylsulfonylamino)phenyl]-4,5-dihydro-4-propyl-5H--tetrazol-5-one]
- pest or weed control at 2000 g/ha (Velvetleaf [1]): 100%
- pest or weed control at 2000 g/ha (Barnyardgrass [2]): 70%
- plant injury at 2000 g/ha (Rice [3]): 60%
- plant injury at 2000 g/ha (Rice [4]): 30%
- pest or weed control at 2000 g/ha (Velvetleaf [5]): 100%
- pest or weed control at 2000 g/ha (Field Bindweed [6]): 100%
- pest or weed control at 2000 g/ha (Field Bindweed [7]): 100%
- plant injury at 2000 g/ha (Soybean [8]): 20%
- pest or weed control at 2000 g/ha (Green Foxtail [9]): 95%
- plant injury at 2000 g/ha (Wheat [10]): 70%
- pest or weed control at 2000 g/ha (Morningglory [11]): 100%
- plant injury at 2000 g/ha (Soybean [12]): 70%
- pest or weed control at 2000 g/ha (Green Foxtail [13]): 80%
- plant injury at 2000 g/ha (Wheat [14]): 20%
- pest or weed control at 2000 g/ha (Morningglory [15]): 100%
- pest or weed control at 2000 g/ha (Johnsongrass [16]): 10%
- plant injury at 2000 g/ha (Field Corn [17]): 70%
- plant injury at 2000 g/ha (Field Corn [18]): 60%
- pest or weed control at 2000 g/ha (Johnsongrass [19]): 70%
- plant injury at 2000 g/ha (Cotton [20]): 100%
- plant injury at 2000 g/ha (Cotton [21]): 100%
- pest or weed control at 2000 g/ha (Barnyardgrass [22]): 80%
